Experimental data taken from BindingDB's records for doi:10.1016/0014-2999(79)90202-4 (1979).

Biological target: 5-hydroxytryptamine receptor 7 (Rattus norvegicus, UniProt P32305)
Sequence (P32305 whole entry): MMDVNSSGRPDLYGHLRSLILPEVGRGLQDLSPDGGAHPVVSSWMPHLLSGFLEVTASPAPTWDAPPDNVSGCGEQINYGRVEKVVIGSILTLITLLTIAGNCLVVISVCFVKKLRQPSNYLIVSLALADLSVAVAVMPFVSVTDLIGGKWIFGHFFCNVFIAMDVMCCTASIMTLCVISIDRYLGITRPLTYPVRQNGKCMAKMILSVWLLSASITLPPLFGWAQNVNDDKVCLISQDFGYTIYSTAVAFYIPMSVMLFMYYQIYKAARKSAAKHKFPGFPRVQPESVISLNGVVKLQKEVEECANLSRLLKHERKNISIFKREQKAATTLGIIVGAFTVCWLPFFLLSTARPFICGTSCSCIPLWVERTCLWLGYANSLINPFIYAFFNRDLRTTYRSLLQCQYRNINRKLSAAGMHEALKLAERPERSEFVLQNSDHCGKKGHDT

| Structure (SMILES) | Ki [nM] |
| --- | --- |
| CC(COc1ccccc1)N(CCCl)Cc1ccccc1 (stereo unspecified) | 0.9 |
| c1cc2c(c(NC3=NCCN3)c1)CCCC2 | 290 |
| CNCC(O)c1ccc(O)c(O)c1 (stereo unspecified) [EPINEPHRINE] | 600 |
| CNC[C@H](O)c1cccc(O)c1 [PHENYLEPHRINE] | 1400 |
| Cc1cc(C(C)(C)C)c(O)c(C)c1CC1=NCCN1 [SMR000059324] | 23 |
| c1ccc(CC2=NCCN2)cc1 [Tolazoline] | 2000 |

Next, values leading:

| Ki [nM] | Structure (SMILES) |
| --- | --- |
| 5 | O=C(NC1CCN(CCc2c[nH]c3ccccc23)CC1)c1ccccc1 [N-{1-[2-(1H-Indol-3-yl)-ethyl]-piperidin-4-yl}-benzamide(indoramin)] |
| 1 | COc1cccc(OC)c1OCCNCC1Oc2ccccc2OC1c1ccccc1 (stereo unspecified) [NSC_185453] |
| 43 | c1ccc2c(CC3=NCCN3)cccc2c1 [Naphazoline] |
| 360 | c1ccc2c(c1)OCC(CN1CCCCC1)O2 (stereo unspecified) [Piperoxan] |
| 0.1 | COc1cc2nc(N3CCN(C(=O)c4ccco4)CC3)nc(N)c2cc1OC [[3H]-Minipress] |
